The first data set relates to tumor model.
Test: not given
On the set-up: method as in PMID 22996645. The conditions noted are these: cited from earlier work.
T3 sequence (D2K8K8 entry or part of it): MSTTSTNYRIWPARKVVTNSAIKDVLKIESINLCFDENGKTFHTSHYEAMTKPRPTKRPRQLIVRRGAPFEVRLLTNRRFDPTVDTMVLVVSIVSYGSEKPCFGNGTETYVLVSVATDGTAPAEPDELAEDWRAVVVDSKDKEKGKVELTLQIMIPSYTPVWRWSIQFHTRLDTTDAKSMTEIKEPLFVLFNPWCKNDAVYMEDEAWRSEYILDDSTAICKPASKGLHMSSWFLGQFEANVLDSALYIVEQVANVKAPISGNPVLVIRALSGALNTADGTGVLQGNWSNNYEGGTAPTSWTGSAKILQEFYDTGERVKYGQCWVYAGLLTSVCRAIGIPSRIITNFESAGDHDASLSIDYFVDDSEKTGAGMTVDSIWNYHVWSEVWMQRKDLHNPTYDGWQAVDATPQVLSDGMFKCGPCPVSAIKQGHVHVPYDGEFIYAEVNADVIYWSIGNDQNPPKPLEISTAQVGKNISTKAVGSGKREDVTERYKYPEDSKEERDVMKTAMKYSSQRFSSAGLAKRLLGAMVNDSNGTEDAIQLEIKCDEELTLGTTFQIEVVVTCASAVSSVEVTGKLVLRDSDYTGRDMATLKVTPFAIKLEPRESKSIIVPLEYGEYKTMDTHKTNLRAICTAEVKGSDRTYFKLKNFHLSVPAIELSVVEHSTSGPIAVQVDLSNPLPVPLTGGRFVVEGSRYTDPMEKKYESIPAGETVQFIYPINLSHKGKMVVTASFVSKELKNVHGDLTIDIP
T2 sequence (P04517 2038-2279): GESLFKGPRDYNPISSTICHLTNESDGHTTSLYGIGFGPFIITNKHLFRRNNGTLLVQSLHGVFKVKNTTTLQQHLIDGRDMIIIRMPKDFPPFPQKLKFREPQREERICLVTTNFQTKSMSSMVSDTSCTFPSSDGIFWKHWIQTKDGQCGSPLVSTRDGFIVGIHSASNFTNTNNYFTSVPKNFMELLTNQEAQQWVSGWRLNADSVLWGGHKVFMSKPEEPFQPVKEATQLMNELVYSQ
Take `N[C@H](C(=O)O)[C@@H]1CC(Cl)=NO1` [Acivicin, acivicin]: the “Activity in vivo in a tumor model” value is on record as “active in vivo”.

A further data set addresses T1, human caspase-1 (Homo sapiens, UniProt P29466).
T1 construct: purchased Abcam
T1 sequence (P29466 120-297 limits assumed): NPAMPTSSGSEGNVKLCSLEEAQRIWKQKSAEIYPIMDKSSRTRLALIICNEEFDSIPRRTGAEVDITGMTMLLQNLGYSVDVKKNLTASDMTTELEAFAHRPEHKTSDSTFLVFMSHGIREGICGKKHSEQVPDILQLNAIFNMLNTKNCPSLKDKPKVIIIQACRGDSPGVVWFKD
T1 sequence (P29466 317-404 limits assumed): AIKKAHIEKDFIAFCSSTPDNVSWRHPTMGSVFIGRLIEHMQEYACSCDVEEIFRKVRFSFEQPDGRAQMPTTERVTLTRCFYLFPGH
The data set can be described thus: Cysteine protease inhibition assay, caspase-1 (Ac-YVAD-pNA). It is filed as biochemical. The following applies: 3 at 100 μM, compared to a DMSO control, chromogenic assay. As to the method:
The activity of caspase-1 was determined by use of chromogenic substrate Ac-YVAD-pNA (Enzo Life Sciences, NY, USA). The assay was performed by adding 45 μL of 1 Unit caspase-1 (Abcam, MA, USA) and 5 μL of Ac-YVAD-pNA (final concentration, 5 μM) to 50 μL assay buffer (50 mM HEPES pH 7.4, 10 mM DTT, 1 mM EDTA, 0.1% CHAPS, 20% glycerol). Substrate cleavage after 1 h incubation at 37°C was measured by […] absorbance at 400 nm in a benchtop UV/Vis spectrophotometer (UV1800, Shimadzu, Kyoto, Japan).
(§1) Transglutaminases and cysteine proteases have a similar catalytic mechanism involving an active site cysteine and formation of a thioacyl intermediate. […] To test this hypothesis, the inhibition of two cysteine proteases, human caspase-1 and recombinant tobacco etch virus (TEV) protease by 3 at 100 μM were tested using a chromogenic and SDS-PAGE assay, respectively (Figure 9). […] Neither human caspase-1 nor TEV are endogenous proteins in A. gambiae, which may well contain other endogenous targets of 1–3, not least the two other transglutaminases in the A. gambiae genome.
Take `NC(=O)CI` [IA, iodoacetamide, reference compound]: the “Inhibition of caspase-1” value is “potent inhibitor of the enzyme”.

System in a further data set: not given
Test: not given
The following applies: 50 mg/kg, intraperitoneal injection; cited from earlier work. On the set-up: method as in PMID 21275056.
Regarding `N[C@H](C(=O)O)[C@@H]1CC(Br)=NO1` [3-bromoacivicin], the “Acute toxicity in mice” value is given as “no acute toxicity”.

The next data set deals with model of human African trypanosomiasis.
Test: not given
On the set-up: method as in PMID 21275056. The following applies: cited from earlier work.
`N[C@H](C(=O)O)[C@@H]1CC(Br)=NO1` [3-bromoacivicin]: the “Activity in vivo in a model of human African trypanosomiasis” value is “active in vivo”.

Another data set relates to Drosophila.
Test: not given
The following applies: delivered orally ad libitum, 10 μM in agar; cited from earlier work. On the set-up: method as in PMID 22996645.
As to `N[C@H](C(=O)O)[C@@H]1CC(Cl)=NO1` [Acivicin, acivicin], the “Toxicity to Drosophila” value is “non-toxic”.

The next data set concerns the target T2, recombinant tobacco etch virus (TEV) protease (Tobacco etch virus, UniProt P04517).
T2 construct: recombinant tobacco etch virus (TEV) protease
The data set can be described thus: Cysteine protease inhibition assay, TEV protease (GST-gp78 cleavage, SDS-PAGE). Type of data set: biochemical. The conditions noted are these: 3 at 100 μM, compared to a DMSO control. As to the method: The activity of recombinant tobacco etch virus (TEV) protease was determined by cleavage of a fusion protein containing a TEV cleavage site between GST and a 17 kDa fragment of human gp78. TEV and GST-gp78 were incubated at 37°C for 10 min at a substrate:enzyme mass ratio of 10:1. The reaction was stopped by adding 3× loading buffer (150 mM Tris–HCl pH 6.8, 300 mM DTT, 6% (w/v) SDS, 0.06% (w/v) bromophenol blue, 30% (v/v) glycerol). Samples were heated at 95°C for 3 min and separated by 4–20% gradient SDS-PAGE.
as §1
Consider `NC(=O)CI` [IA, iodoacetamide, reference compound], for which the “Inhibition of TEV protease” value is listed as “potent inhibitor of the enzyme”.

Another data set concerns the target T3, AgTG3 (Anopheles gambiae, UniProt D2K8K8). The data set can be described thus: AgTG3 plugin cross-linking assay (SDS-PAGE, FITC-CAD). It is filed as biochemical. The following applies: 100 μM inhibitor, 5 mM CaCl2, intensity of high MW bands. As for the experimental part: Recombinant AgTG3 was pre-incubated with 100 μM inhibitors overnight at room temperature. AgTG3, with and without pretreatment with inhibitors (1 μg), was added to plugin-C (20 μg) and 0.5 mM FITC-cadaverine (FITC-CAD) in 25 mM HEPES, pH 7.5, 10 mM CaCl2, 1 mM DTT. The reaction was incubated at room temperature for 2 h and quenched by heat denaturation of the proteins in the presence of Laemmli buffer. The extent of cross-linking was analysed by sodium dodecyl sulphate-polyacrylamide gel electrophoresis (SDS-PAGE). The gel was scanned using Alpha Imager 2200 software.
Additional assays were performed to examine whether compounds 1 and 3 would inhibit the cross-linking of plugin-C by AgTG3 in solution, with FITC-CAD for fluorescent detection of plugin-C. Results were assessed by SDS/PAGE and UV illumination to detect FITC-CAD (Figure 7). […] In the presence of enzyme, substrate and calcium a ladder of fluorescent bands of increasing molecular weight (MW) is observed (lane 4), corresponding to cross-linked oligomers of plugin also labeled by FITC-CAD. […] However, the levels of AgTG3 in solution assays are higher in the cross-linking assay than the primary screen. The levels of plugin-C were also higher, which competes with slow-binding irreversible inhibitors such as 1 and 3 for the active site of AgTG3.
Figure 7 Inhibition of plugin cross-linking by DHI inhibitors. Fluorescent image of SDS-PAGE for FITC-cadaverine labeling and cross-linking of plugin by AgTG3. Lanes (1–4): (1) AgTG3, (2) Plugin-C, (3) AgTG3 and plugin-C, (4) AgTG3, plugin-C, and 5 mM CaCl2. Lanes (5–8): AgTG3, plugin-C, 5 mM CaCl2 and (5) 10 mM EDTA, (6) 50 mM IA, (7) 100 μM 1, (8) 100 μM 3. (below) Coomassie stain indicating relative levels of monomeric Plugin-C.
As to `O=C(N[C@@H](Cc1c[nH]c2ccc(F)cc12)C(=O)NC[C@@H]1CC(Br)=NO1)OCc1cnc2ccccc2c1`, the “Inhibition of plugin-C cross-linking by AgTG3” value is “inhibited the cross-linking of plugin”.

The data set is the same for the next values; noted with them: 10 mM EDTA, 50 mM IA, 5 mM CaCl2.
For `O=C(O)CN(CCN(CC(=O)O)CC(=O)O)CC(=O)O` [EDTA, reference compound], the “Inhibition of plugin-C cross-linking by AgTG3 (controls)” value was “Cross-linking is inhibited”.

Regarding `NC(=O)CI` [IA, iodoacetamide, reference compound], the “Inhibition of plugin-C cross-linking by AgTG3 (controls)” value is given as “Cross-linking is inhibited”.

A further data set deals with T3, AgTG3. The experiment in a line: biochemical. The following applies: dose–response curves in the range of 0.5–100 μM, FITC-CAD plate assay; read-out: IC50 for inhibition of AgTG3. As for the experimental part:
Plugin-C (25 μg/well) was incubated in black 96-well Ni-coated plates (Pierce 15342) for 2 h at room temperature or overnight at 4°C. Plates were washed three times with 200 μL of TBS and loaded with 0.5 μg of AgTG3 in 50 μL TBS buffer. DHI inhibitors were added for 1 h to block the enzyme, followed by 50 μL of 2× assay buffer (2× TBS, 20 mM CaCl2, 100 μM FITC-CAD, 2 mM DTT). Wells were incubated for 60 min at room temperature, washed three times with 200 μL of TBS, and filled to a final volume of 100 μL for fluorescence measurements in a microplate reader (Biotek Synergy 2). The z-score was calculated based on the mean and standard deviation of three replicates of inhibitor compared to a DMSO control, zi=x¯DMSO-x¯i/σDMSO+σi .
The targeted chemical library was screened for inhibition of AgTG3 at 100 μM in a FITC-CAD plate assay (Figure 3A), performed in triplicate as previously described. Hit-calling was based on >67% decrease in fluorescence compared to DMSO and z > 5. Seven compounds fulfilled these criteria in the primary assay.
To verify the results of this preliminary assay, dose–response curves in the range of 0.5–100 μM were determined for 27 structurally related compounds within the targeted library (Additional file 3: Table S2 and Additional file 4: Table S3). […] Selected stereoisomers present in the targeted library were compared in equivalent dose–response assays. Inhibition of AgTG3 was specific for the (S)-DHI isomer of 1 (Figure 4A), the (R) isomer (4) displaying no activity (IC50 > 100 μM).
Regarding `O=C(N[C@@H](Cc1c[nH]c2ccc(F)cc12)C(=O)NC[C@@H]1CC(Br)=NO1)OCc1cnc2ccccc2c1`, the IC50 came to 3.1 µM.

In the case of `O=C(N[C@@H](Cc1c[nH]c2ccc(F)cc12)C(=O)NC[C@@H]1CC(Br)=NO1)OCc1cnc2ccccc2n1`, the IC50 stood at 9.7 µM.

Regarding `O=C(N[C@@H](Cc1c[nH]c2ccc(F)cc12)C(=O)NC[C@@H]1CC(Br)=NO1)OCc1ccnc2ccccc12`, the IC50 worked out at 12.2 µM.

Turning to `CC(C)(C)OC(=O)N[C@@H](Cc1c[nH]c2ccc(F)cc12)C(=O)NC[C@@H]1CC(Br)=NO1`, the half-maximal inhibitory concentration (IC50) stood at 56 µM.

As for `O=C(N[C@@H](Cc1c[nH]c2ccc(O)cc12)C(=O)NC[C@@H]1CC(Br)=NO1)OCc1cnc2ccccc2c1`, the IC50 turned out to be 4.3 µM.

As to `O=C(N[C@@H](Cc1c[nH]c2ccc(F)cc12)C(=O)NC[C@H]1CC(Br)=NO1)OCc1cnc2ccccc2c1`, the IC50 is greater than 100 µM.

As for `O=C(N[C@@H](Cc1ccccc1)C(=O)NC[C@@H]1CC(Br)=NO1)OCc1cnc2ccccc2c1` [Compound 5], the IC50 is 29 µM.

As to `O=C(N[C@@H](Cc1ccccc1F)C(=O)NC[C@@H]1CC(Br)=NO1)OCc1cnc2ccccc2c1` [Compound 8], the IC50 was roughly 30 µM.

Still in this data set, the particulars now being: dose–response, 27 dihydroisoxazole inhibitors; read-out: IC50 (Supplementary Table 3, AgTG3).
As to `O=C(N[C@@H](Cc1c[nH]c2ccc(F)cc12)C(=O)NC[C@@H]1CC(Br)=NO1)OCc1ccnc2ccccc12`, the IC50 was 12 µM.

In the case of `O=C(N[C@@H](Cc1csc2ccccc12)C(=O)NC[C@@H]1CC(Br)=NO1)OCc1cnc2ccccc2c1`, the IC50 was determined as 18 µM.

Take `O=C(N[C@H](Cc1ccccc1)C(=O)NC[C@@H]1CC(Br)=NO1)OCc1cnc2ccccc2c1` [Compound 6]: the IC50 is greater than 100 µM.

On to `O=C(N[C@@H](Cc1ccccc1F)C(=O)NC[C@@H]1CC(Br)=NO1)OCc1cnc2ccccc2c1` [Compound 8], for which the IC50 came to 28 µM.

`O=C(N[C@@H](Cc1ccc(I)cc1)C(=O)NC[C@@H]1CC(Br)=NO1)OCc1cnc2ccccc2c1` [Compound 11]: the 50% inhibitory concentration (IC50) is greater than 100 µM.

Consider `O=C(N[C@@H](Cc1ccc(O)cc1)C(=O)NC[C@H]1CC(Br)=NO1)OCc1ccccc1` [Compound D26], for which the IC50 was greater than 100 µM.

On to `O=C(N[C@@H](Cc1ccc(O)cc1)C(=O)NC[C@@H]1CC(Br)=NO1)OCc1ccccc1` [Compound D27], for which the IC50 was greater than 100 µM.

In the case of `O=C(N[C@@H](Cc1ccc(O)cc1)C(=O)NC[C@H]1CC(Br)=NO1)OCc1cnc2ccccc2c1` [Compound D62], the IC50 is greater than 100 µM.

As to `O=C(N[C@@H](Cc1ccc(O)cc1)C(=O)NC[C@H]1CC(Br)=NO1)OCC1c2ccccc2-c2ccccc21` [Compound D71], the IC50 is greater than 100 µM.

Consider `O=C(N[C@@H](Cc1ccc(O)cc1)C(=O)NC[C@@H]1CC(Br)=NO1)OCC1c2ccccc2-c2ccccc21` [Compound D73], for which the IC50 was greater than 100 µM.

With `CN(C(=O)OCc1cnc2ccccc2c1)[C@@H](Cc1ccccc1)C(=O)NC[C@@H]1CC(Br)=NO1` [Compound D83], the IC50 is greater than 100 µM.

With `O=C(N[C@@H](Cc1ccc(-c2ccccc2)cc1)C(=O)NC[C@@H]1CC(Br)=NO1)OCc1cnc2ccccc2c1` [Compound D84], the IC50 was greater than 100 µM.

On to `O=C(N[C@@H](CCc1ccccc1)C(=O)NC[C@@H]1CC(Br)=NO1)OCc1cnc2ccccc2c1` [Compound D85], for which the IC50 is greater than 100 µM.

With `O=C(N[C@@H](Cc1cccc2ccccc12)C(=O)NC[C@@H]1CC(Br)=NO1)OCc1cnc2ccccc2c1` [Compound D86], the IC50 was greater than 100 µM.

Turning to `C[C@@](Cc1ccccc1)(NC(=O)OCc1cnc2ccccc2c1)C(=O)NC[C@@H]1CC(Br)=NO1` [Compound D91], the IC50 is greater than 100 µM.

On to `C[C@@H](c1ccccc1)[C@H](NC(=O)OCc1cnc2ccccc2c1)C(=O)NC[C@@H]1CC(Br)=NO1` [Compound D94], for which the IC50 came to 84 µM.

In the case of `C#Cc1ccc(COC(=O)N[C@@H](Cc2ccc(O)cc2)C(=O)NC[C@@H]2CC(Br)=NO2)cc1` [Compound D142], the IC50 is greater than 100 µM.

As for `[N-]=[N+]=Nc1ccc(COC(=O)N[C@@H](Cc2ccc(O)cc2)C(=O)NC[C@@H]2CC(Br)=NO2)cc1` [Compound D143], the IC50 was greater than 100 µM.

Staying with this data set, now noted: up to 100 μM.
`O=C(N[C@H](Cc1ccccc1)C(=O)NC[C@@H]1CC(Br)=NO1)OCc1cnc2ccccc2c1` [Compound 6]: the “Activity against AgTG3 in dose–response assay” value was “inactive”.

As for `O=C(N[C@@H](Cc1ccc(I)cc1)C(=O)NC[C@@H]1CC(Br)=NO1)OCc1cnc2ccccc2c1` [Compound 11], the “Activity against AgTG3 in dose–response assay” value was “inactive”.

The record behind these values is article PMC4113009, “Dihydroisoxazole inhibitors of Anopheles gambiae seminal transglutaminase AgTG3” (Malaria Journal, 2014).
